Assay results: patent US20090221829A1 (priority 2005, published 2009)
Like-named read-outs stand apart in the source and are kept apart here.

Experiments:
[1] = tested on: Candida albicans(KCTC 1940), Aspergillus niger (ATCC 9642) and Saccharomyces cerevisiae; assay: Relative antifungal activity by agar dilution method (vs Miconazole); type: cell-based;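 also: scores 5 to 7 mean a lower fungicidal concentration than Miconazole so higher is more potent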
Description: Novel compounds represented by the above chemical formula (I), and the relative activities in accordance with the agar dilution method in Sabouraud dextrose agar media, Czapek agar media and Yeast Extract-Peptone-Dextrose agar media for Candida albicans(KCTC 1940), Aspergillus niger (ATCC 9642) and Saccharomyces cerevisiae are described respectively in following Table 1.

various kinds of Candida = assay: MIC (Minimal Inhibitory Concentration) data; type: cell-based
[2] = Oral toxicity test (general symptoms, weight change, lethal case); type: in vivo, rats (SD); conditions: for LD50: SD, rat, in vivo, 1000 mg/kg, rats, oral, read-out: Acute toxicity LD50; for general symptom / lethal case / weight change: oral, 1,000 mg/kg, suspended in propylene glycol, SD rats
Method: Meanwhile, the toxicity test of the compound in table II of the present invention was performed using […]. The compound was suspended in propylene glycol. The resulting suspension was medicated respectively on 6 female rats and 5 male rats (SD) of which age are 5 weeks, via oral after 12 hours starvation. The general symptoms, weight change and lethal case of the above rats were investigated.
In cases of the tests of the compounds (Compound No. 12, 119, 134, 148, 150)(delivery of 1,000 mg/kg), the general symptom and weight change were normal and the lethal case was not observed.

salmonella typhimurium = assay: Bacterial reverse mutation test (Ames test); type: cell-based
[3] = tested on: cultured lung cells derived from chinese hamster; assay: Chromosome aberration test; type: cell-based
Micronucleus test = type: in vivo
[4] = biological target: sterol-24-methyl transferase (Candida albicans, UniProt O74198); type: biochemical; conditions: in vitro, read-out: Relative Activity (IC50 class)
sterol-24-methyl transferase, sequence (O74198 whole entry): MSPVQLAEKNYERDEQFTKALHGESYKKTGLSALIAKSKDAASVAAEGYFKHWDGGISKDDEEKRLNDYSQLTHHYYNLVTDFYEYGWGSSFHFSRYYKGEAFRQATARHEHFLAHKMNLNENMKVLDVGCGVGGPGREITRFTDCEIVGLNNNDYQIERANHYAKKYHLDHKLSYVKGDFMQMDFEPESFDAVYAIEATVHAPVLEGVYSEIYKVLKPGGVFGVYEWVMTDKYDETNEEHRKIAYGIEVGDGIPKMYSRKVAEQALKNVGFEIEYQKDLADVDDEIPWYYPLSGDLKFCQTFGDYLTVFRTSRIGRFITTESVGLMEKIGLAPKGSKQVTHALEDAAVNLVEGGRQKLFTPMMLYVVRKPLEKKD
Description: Moreover, the relative activity for sterol-24-methyl transferase of the above compound in Table 11 is described in Table 13.

[5] = agar dilution method, fungicidal concentration relative to control drug Miconazole (=4)
[6] = cultured lung cells derived from chinese hamster
[7] = C. albicans ATCC 11651, unit assumed
[8] = C. albicans ATCC 28838, unit assumed
[9] = C. albicans IFO 1385, unit assumed
[10] = C. albicans OY-003, unit assumed
[11] = C. albicans OY-019, unit assumed
[12] = C. krusei (KCTC7273), unit assumed
[13] = antifungal activity relative to Miconazole, agar dilution

Row | melting point [°C] | SMILES | Relative Activity [1, 5] | LD50 ([2]; female) [mg/kg] | LD50 ([2]; male) [mg/kg] | general symptom [2] | lethal case [2] | weight change [2] | Genetic toxicity AMES test (salmonella typhimurium) | bacterial reverse mutation test (Ames test) result (salmonella typhimurium) | MIC (various kinds of Candida; [7]) [µg/mL] | MIC (various kinds of Candida; [8]) [µg/mL] | MIC (various kinds of Candida; [9]) [µg/mL] | MIC (various kinds of Candida; [10]) [µg/mL] | MIC (various kinds of Candida; [11]) [µg/mL] | MIC (various kinds of Candida; C. albicans U.K, unit assumed) [µg/mL] | MIC (various kinds of Candida; C. glabrata, unit assumed) [µg/mL] | MIC (various kinds of Candida; C. glulliermondi, unit assumed) [µg/mL] | MIC (various kinds of Candida; [12]) [µg/mL] | MIC (various kinds of Candida; C. parapsilosis, unit assumed) [µg/mL] | Relative Activity [1, 13] | other results
1 |  | CCCCCCCCCCCC1=[N+](Cc2ccc(C(C)(C)C)cc2)CCc2cc(NC)c(OC)cc21 | 1 | > 1500 | > 2500 | normal | not observed | normal | negative | negative |  |  |  |  |  |  |  |  |  |  |  | MIC (various kinds of Candida; C. glabrata): 3.125; MIC (various kinds of Candida; C. glulliermondi): 3.125; Genetic toxicity Chromosome abmormality test [3, 6]: negative; chromosome aberration test result [3, 6]: negative; Genetic toxicity Nucleus test (Micronucleus test; male ICR mice): negative; micronucleus test result (Micronucleus test; male ICR mice): negative
2 |  | CCCCCCCCCCCC1=[N+](Cc2ccccc2F)CCc2cc(OC)c(OC)cc21.[Cl-] [Compound No. 12, 1-n-undecyl-2-(2-fluorophenyl)methyl-3,4-dihydro-6,7-dimethoxyisoquinolinium chloride] | 2 | > 1000 | > 1500 | normal | not observed | normal | negative | negative | 1.56 | 1.56 | 3.12 | 1.56 | 3.12 | 1.56 | 1.56 | 1.56 | 6.25 | 1.56 |  | Genetic toxicity Chromosome abmormality test [3]: negative; chromosome aberration test result [3]: negative; Genetic toxicity Nucleus test (Micronucleus test; male ICR mice): negative; micronucleus test result (Micronucleus test; mouse, in vivo): negative
3 |  | CCCCCCCCCCCC1=[N+](Cc2ccc(C(C)(C)C)cc2)CCc2cc3c(cc21)oc(=O)n3C.[Br-] [Compound No. 115, 7,8-dihydro-1-methyl-6-(4-t-butylphenyl)methyl-5-undecyloxazolo[4,5-g]isoquinolinium-2 (1H)-one bromide] | 2 |  |  |  |  |  |  |  |  |  |  |  |  |  |  |  |  |  |  | IC50 [4]: 5 to 50 µM
4 |  | CCCCCCCCCCCC1=[N+](c2ccc(C(C)(C)C)cc2)CCc2cc(CNC(=O)OCC)ccc21.[Br-] [Compound No. 118, ethyl 3,4-dihydro-2-(4-t-butylphenyl)-1-undecylisoquinolinium-6-ylmethylcabamate bromide] | 2 |  |  |  |  |  |  |  |  |  |  |  |  |  |  |  |  |  |  | IC50 [4]: 5 to 50 µM
5 |  | CCCCCCCCCCCC1=[N+](Cc2ccc(NC(=O)OC(C)(C)C)cc2)CCc2cc(OC)c(OC)cc21.[Cl-] [Compound No. 120, 2-(4-t-butylalcoholcarbonylaminophenyl)methyl-3,4-dihydro-6,7-dimethoxy-1-undecylisoquinolinium chloride] |  |  |  |  |  |  |  |  | 1.56 | 1.56 | 3.12 | 1.56 | 3.12 | 1.56 | 6.25 | 3.12 | 1.56 | 3.12 |  | IC50 [4]: < 5 µM
6 |  | CCCCCCCCOc1c(C[N+]2=C(CCc3ccc(C(C)(C)C)cc3)c3cc(OC)c(OC)cc3CC2)cccc1OC [Compound No. 134, 1-(2-(4-t-butylphenyl))ethyl-2-(2-octyloxy-3-methoxyphenyl)methyl-3,4-dihydro-6,7-dimethoxy isoquinolinium chloride] | 1 | > 1000 | > 1200 | normal | not observed | normal | negative | negative | 3.12 | 1.56 | 3.12 | 1.56 | 1.56 | 1.56 | 3.12 | 1.56 | 3.12 | 6.25 |  | Genetic toxicity Chromosome abmormality test [3]: negative; chromosome aberration test result [3]: negative; Genetic toxicity Nucleus test (Micronucleus test; male ICR mice): negative; micronucleus test result (Micronucleus test; mouse, in vivo): negative
7 | 78 | CCCc1c2cc(OC)c(OC)cc2cc[n+]1Cc1c(F)cccc1Cl.[Cl-] [Compound No. 139, 1-propyl-2-(2-chloro-6-fluorophenyl)methyl-6,7-dimethoxy-isoquinolinium chloride] |  |  |  |  |  |  |  |  |  |  |  |  |  |  |  |  |  |  | 6 | 
8 | 96 | COc1cc2cc[n+](Cc3c(F)cccc3Cl)c(C)c2cc1OC.[Cl-] [Compound No. 140, 1-methyl-2-(2-chloro-6-fluorophenyl)methyl-6,7-dimethoxyisoquinolinium chloride] |  |  |  |  |  |  |  |  |  |  |  |  |  |  |  |  |  |  | 6 | 
9 | 350 | COc1cc2cc[n+](Cc3ccc(C(C)(C)C)cc3)c(C)c2cc1OC.[Cl-] [Compound No. 143, 1-methyl-2-(4-t-butylphenyl)methyl-6,7-dimethoxyisoquinolinium chloride] |  |  |  |  |  |  |  |  |  |  |  |  |  |  |  |  |  |  | 6 | 
10 | 79 | CCCc1c2cc(OC)c(OC)cc2cc[n+]1Cc1ccc(C(C)(C)C)cc1.[Cl-] [Compound No. 144, 1-propyl-2-(4-t-butylphenyl)methyl-6,7-dimethoxyisoquinolinium chloride] |  |  |  |  |  |  |  |  |  |  |  |  |  |  |  |  |  |  | 6 | 
11 | 105 | CCCCCCc1c2cc(OC)c(OC)cc2cc[n+]1Cc1ccc(C(C)(C)C)cc1.[Cl-] [Compound No. 145, 1-hexyl-2-(4-t-butylphenyl)methyl-6,7-dimethoxyisoquinolinium chloride] |  |  |  |  |  |  |  |  |  |  |  |  |  |  |  |  |  |  | 4 | 
12 | 120 | CCCCCCCCCCCCCCCc1c2cc(OC)c(OC)cc2cc[n+]1Cc1ccc(C(C)(C)C)cc1.[Cl-] [Compound No. 147, 1-pentadecyl-2-(4-t-butylphenyl)methyl-6,7-dimethoxyisoquinolinium chloride] |  |  |  |  |  |  |  |  |  |  |  |  |  |  |  |  |  |  | 1 | 
13 |  | CCCCCCCCOc1c(C[n+]2ccc3cc(OC)c(OC)cc3c2CCc2ccc(C(C)(C)C)cc2)cccc1OC [Compound No. 148, 1-(2-(4-t-butylphenyl))ethyl-2-(2-octyloxy)-3-dimethoxyphenyl)methyl-6,7-dimethoxyisoquinolinium chloride] |  | > 1200 | > 1500 | normal | not observed | normal | negative | negative | 1.56 | 1.56 | 1.56 | 1.56 | 1.56 | 1.56 | 3.12 | 1.56 | 1.56 | 3.12 | 1 | MIC (various kinds of Candida; C. albicnas ATCC 10231, unit assumed): 0.78 µg/mL; Genetic toxicity Chromosome abmormality test [3]: negative; chromosome aberration test result [3]: negative; Genetic toxicity Nucleus test (Micronucleus test; male ICR mice): negative; micronucleus test result (Micronucleus test; mouse, in vivo): negative
14 |  | COc1cc2cc[n+](Cc3cccc(OC)c3OCc3c(F)cccc3Cl)c(CCc3ccc(C(C)(C)C)cc3)c2cc1OC [Compound No. 150, 1-(2-(4-t-butylphenyl))ethyl-2-(2-(2-chloro-6-fluorobenzyloxy)-3-methoxyphenyl)methyl-6,7-dimethoxyisoquinolinium chloride] |  | > 1500 | > 2000 | normal | not observed | normal | negative | negative | 1.56 | 1.56 | 6.25 | 0.78 | 1.56 | 0.78 | 12.5 | 1.6 | 1.56 | 12.5 | 1 | Genetic toxicity Chromosome abmormality test [3]: negative; chromosome aberration test result [3]: negative; Genetic toxicity Nucleus test (Micronucleus test; male ICR mice): negative; micronucleus test result (Micronucleus test; mouse, in vivo): negative

Row | SMILES | melting point [°C] | Relative Activity [1, 5] | LD50 ([2]; female) [mg/kg] | LD50 ([2]; male) [mg/kg] | general symptom [2] | lethal case [2] | weight change [2] | Genetic toxicity AMES test (salmonella typhimurium) | bacterial reverse mutation test (Ames test) result (salmonella typhimurium) | MIC (various kinds of Candida; [7]) [µg/mL] | MIC (various kinds of Candida; [8]) [µg/mL] | MIC (various kinds of Candida; [9]) [µg/mL] | MIC (various kinds of Candida; [10]) [µg/mL] | MIC (various kinds of Candida; [11]) [µg/mL] | MIC (various kinds of Candida; C. albicans U.K, unit assumed) [µg/mL] | MIC (various kinds of Candida; C. glabrata, unit assumed) [µg/mL] | MIC (various kinds of Candida; C. glulliermondi, unit assumed) [µg/mL] | MIC (various kinds of Candida; [12]) [µg/mL] | MIC (various kinds of Candida; C. parapsilosis, unit assumed) [µg/mL] | Relative Activity [1, 13] | other results
15 | CCCCCCCCCCCC1=[N+](Cc2ccc(C(C)(C)C)cc2)CCc2cc(OC)c(OC)cc21.[Cl-] [Compound No. 127, 1-undecyl-2-(4-t-butylphenyl)methyl-3,4-dihydro-6,7-dimethoxy isoquinolinium chloride] | 85 | 1 |  |  |  |  |  |  |  | 0.78 | 1.56 | 0.78 | 1.56 | 0.78 | 1.56 | 1.56 | 1.56 | 1.56 | 1.56 |  | 
